“Also recorded” adds a separate entry of the source.
Key:
[1] = system: Dendritic cells (CD11c+ cells); assay: Apoptosis, survival of mature bone-marrow DCs treated with FLT3 inhibitors (FACS, Annexin V); type: cell-based, mice; details: for apoptosis in DCs (Annexin V binding): 24 hours; for survival and stimulation of the DCs: mature DCs, dose-response analysis, in the presence of GM-CSF+/−FL
Protocol: The survival and function of the DCs was investigated when exposed to FLT3 inhibitors. Mature DCs were incubated in a dose-response analysis to CEP 701, 5214 and AG 1296 in the presence of GM-CSF+/−FL.
Bone marrow (BM) was flushed from the extremities of mice with PBS, red blood cells (RBCs) were lysed in hypotonic buffer, and after washing the cells were plated at 2×10^6 cells/ml in GM-CSF (1000 U/ml) or GM+FL (100 ng/ml) containing medium. On days 2, 4, and 6, non-adherent cells were removed and adherent cells were washed prior to the addition of fresh medium. On day 8, non-adherent mature DCs were harvested, and replated in the absence or presence of CEP-701 at 5 or 50 nM. After 24 hours, cells were then stained for FACS analysis. CD11c+ cells were assessed for MHC class II expression and Annexin V binding (FIG. 1A).
After washing, the cells were plated at 2×10^6 cells/ml in GM-CSF (1000 U/ml)+FL (100 ng/ml) containing medium. On days 2, 4, and 6, non-adherent cells were removed and adherent cells were washed prior to the addition of fresh medium. On day 8, non-adherent mature DCs were harvested, and replated in the absence or presence of AG 1296. After 24 hours, cells were stained for FACS analysis. Dendritic cells (CD11c+ cells) were assessed for CD86 expression and Annexin V binding (FIG. 1B). […] For DCs to activate T cells, they present antigen bound to MHC molecules and express co-stimulatory proteins on their surfaces.

[2] = system: co-stimulatory molecules B7.2 (CD 86) and B7-DC; assay: Expression of co-stimulatory molecules B7.2 (CD 86) and B7-DC on DCs; type: cell-based, Murine; details: AG1296 at 0, 1, or 10 μM
Protocol: FIG. 6 depicts the treatment of DCs with AG1296 at either 0, 1, or 10 μM and then analyzed for the expression of co-stimulatory molecules B7.2 (CD 86) and B7-DC.
(§1) To investigate the role of FL/FLT3 stimulation in regulating costimulatory protein expression by DC, […] or GM-CSF plus FL, were analyzed by Northern blotting for expression of B7-DC, a member of the B7 family of co-stimulatory molecules. […] The inhibition of FLT3 signaling led to a down-regulation of B7-DC as well as B7.2 (CD 86) in these DCs (FIG. 6).

[3] = system: T cells; assay: DC-stimulated proliferation of T cells (3H incorporation); type: cell-based, mice
Protocol: (§2) FLT3 inhibition decreases DC-based proliferation of T cells. For these experiments, DCs were generated as above from BALBc mice. The cells were left untreated or were treated with CEP701 and then plated with C57BL/6 splenocytes at the ratios shown. After 3 days, ^3H was added, and the proliferation determined. […] In FIG. 2b, BALB/c splenocytes were substituted for DCs, in order to test the inhibition of CEP701 on a standard mixed lymphocyte reaction (MLR). […] To determine whether T cell stimulatory response would be inhibited as a result of exposure to AG1296, two different T cell proliferative assays were conducted. […] In this standard mixed lymphocyte reaction, equal numbers of stimulator and responder cells (10^6 of each) were mixed in a 96 well plate, incubated for 4 days, pulsed with 3H-thymidine, and proliferation was determined by analyzing incorporation of tritium. DC-stimulated proliferation was also determined by incubating BM derived DCs (day 8, as above) at a ratio of 1:10 with responder allogeneic splenocytes, in the presence (10 μm) or absence of AG1296.

[4] = system: BALB/c splenocytes; assay: Standard mixed lymphocyte reaction (MLR); type: cell-based, mice
Protocol: as §2

[5] = system: T cells; assay: Direct stimulation of T cells on anti-CD3 plates with anti-CD28 antibody; type: cell-based; details: anti-CD3 coated plates, 2 days, 3H
Protocol: T cells were then stimulated with anti-CD28 antibody. After 2 days, 3H was added, and the proliferation determined.

[6] = system: CD11c and NK cell populations; assay: Immune cell populations in spleens and lymph nodes of treated mice (FACS); type: in vivo, BALB/c mice; details: 20 mg/kg twice a day for 5 days
Protocol: BALB/c mice were treated with 20 mg/kg of CEP701 or vehicle twice a day for 5 days, and then were analyzed for their immune populations. Spleens and lymph nodes were harvested and collagenase digested to release DCs from the stroma. Cells were then washed and analyzed by FACS for the presence of T (CD3+/DX5−), NK (CD3−,DX5+), B (B220+, CD11c−) or DCs (CD11c+).

[7] = system: transgenic T cells that are specific for HA; assay: In vivo autoreactive T cell expansion in HA transgenic (137) mice given 6.5 T cells; details: 137 mice treated 3 days prior to and 5 days after T cell transfer
[8] = Established experimental autoimmune encephalomyelitis (EAE), MOG 35-55; type: in vivo, C57BL/6 mice; details: 20 mg/kg, started within one day of initial symptoms, scored daily, blinded
Protocol: C57BL/6 mice were injected with 100 micrograms of the Established Experimental Allergic Encephalitomyelitis (EAE) inducing peptide MOG 35-55 in CFA with 400 micrograms of Mycobacterium tuberculosis. On the day of immunization and 48 hours later, mice were boosted with pertussis toxin, following standard protocols. […] Scores were as follows: 0 (no symptoms), 0.5 (partial loss of tail tonicity), 1 (full loss of tail tonicity), 2 (affected gait), 2.5 (partial hind limb paralysis) 3 (full hind limb paralysis) 4 (front and hind paralysis) 5 (moribund). 10 mice/group were treated in the study shown.

[9] = system: axons; assay: Degenerating axonal fibers in medial dorsal column of MOG-immunized mice; type: in vivo; details: cervical level 5, 210 days post disease induction, versus vehicle
Text: In reference to FIG. 10, intact brain and spinal cords were removed from mice that were immunized with MOG peptide, and either treated with the vehicle control or CEP-701 after symptom onset. Following treatment and scoring, the mice were kept for an additional 2 months, then sacrificed and the CNS prepared for evaluation by preservation in formalin. Thin plastic sections ([…]) were generated from cervical level 5, followed by staining in Toluidine blue and axons were visualized. Total axon numbers and actively degenerating fibers in a predefined area of the medial dorsal column were enumerated by an experienced examiner in a blinded fashion. Plots show the number of degenerating axonal fibers in the defined field area for the sections of CEP-701 treated mice compared to vehicle control mice at 210 days post disease induction.

[10] = system: B7-DC; assay: Northern blot for hB7-DC in human bone marrow cells treated with cytokines; type: cell-based; details: FL added to GM-CSF
Protocol: as §1

## COc1cc2ncc(-c3ccccc3)nc2cc1OC [AG1296]
[1]; AG 1296 at 0, 1, and 10 μM, DCs generated in GM-CSF + FL
  apoptosis in DCs (Annexin V binding): confirmed; also recorded: induced apoptosis in DCs in a dose-dependent fashion
[1]; AG 1296 at 0, 1, and 10 μM, DCs generated in GM-CSF + FL, listed as AG 1296
  apoptosis in DCs (Annexin V binding): induction of apoptosis in a significant fraction of the DCs
[1]
  survival and stimulation of the DCs: decrease in survival and stimulation
[2]
  expression of co-stimulatory molecule B7-DC on DCs: down regulated
  expression of co-stimulatory molecule B7.2 (CD 86) on DCs: down regulated
[3]; BM derived DCs 1:10 with allogeneic splenocytes, AG1296 10 μm
  T cell proliferation induced by DCs: decrease in T cell proliferation; also recorded: inhibited
[4]; allogeneic spleen cells, 10^6 each, 4 days, 3H-thymidine, AG1296 10 μm
  mixed lymphocyte reaction proliferation: inhibition

## C[C@]12O[C@H](C[C@]1(O)CO)n1c3ccccc3c3c4c(c5c6ccccc6n2c5c31)CNC4=O [CEP-701]
[1]; CEP-701 at 5 or 50 nM, DCs generated in GM-CSF alone or GM-CSF and FL
  apoptosis in DCs (Annexin V binding): induced apoptosis; also recorded: induction of apoptosis in a significant fraction of the DCs
[1]
  survival and stimulation of the DCs: decrease in survival and stimulation
[3]; BALBc DCs treated with CEP701, plated with C57BL/6 splenocytes, 3 days, 3H
  DC-based proliferation of T cells: robust effect on decreasing proliferation of T cells
[4]; BALB/c splenocytes substituted for DCs, CEP701
  mixed lymphocyte reaction (MLR) response: inhibited
[5]
  proliferation of directly stimulated T cells: does not inhibit their proliferation
[6]
  B (B220+, CD11c−) cell population: no significant change
  DC (CD11c+) population: decreases
  NK (CD3−,DX5+) population: decreases
  T (CD3+/DX5−) cell population: no significant change
[7]; listed as CEP 701
  autoreactive T cell expansion, as measured by thy 1.1: decreases an in vivo autoreactive immune response
[7]; listed as CEP701
  autoreactive T cell expansion, as measured by thy 1.1: decrease in the autoreactive T cell expansion
[8]
  EAE clinical score (0-5): lower scores
[9]
  number of degenerating axonal fibers (neurodegeneration): decrease in neurodegeneration

## CC(C)OCc1ccc2c(c1)c1c3c(c4c(c1n2CCCO)Cc1ccccc1-4)C(=O)NC3 [CEP-5214]
[1]; CEP-5214, data not shown
  apoptosis in DCs: confirmed
[1]
  survival and stimulation of the DCs: decrease in survival and stimulation

B1: FL: FLT3 Ligand (FL), ligand that stimulates the FLT3 receptor (protein, UniProt P49771 27-235, looked up)
Fms-related tyrosine kinase 3 …: TQDCSFQHSPISSDFAVKIRELSDYLLQDYPVTVASNLQDEELCGGLWRLVLAQRWMERLKTVAGSKMQGLLERVNTEIHFVTKCAFQPPPSCLRFVQTNISRLLQETSEQLVALKPWITRQNFSRCLELQCQPDSSTLPPPWSPRPLEATAPTAPQPPLLLLLLLPVGLLLLAAAWCLHWQRTRRRTPRPGEQVPPVPSPQDLLLVEH
[10]
  B7-DC expression (Northern blot): greatly up-regulates

Source: patent US20090054358A1, “Flt3 inhibitors for immune suppression” (THE JOHN HOPKINS UNIVERSITY, priority 2004, published 2009)
